Reference: ChEMBL document CHEMBL4257535, “Design, synthesis and biological evaluation of AKT inhibitors bearing a piperidin-4-yl appendant” (Medchemcomm, 2018)
Calls of active or inactive are those of the source. The rule behind the calls is not given here.

Columns and labels:
[1] = target: T1, Aurora kinase A (Homo sapiens) (UniProt O14965); test: Inhibition of Aurora A (unknown origin) at 1 uM after 40 mins by scintillation counting method relative to control
T1 sequence (whole entry): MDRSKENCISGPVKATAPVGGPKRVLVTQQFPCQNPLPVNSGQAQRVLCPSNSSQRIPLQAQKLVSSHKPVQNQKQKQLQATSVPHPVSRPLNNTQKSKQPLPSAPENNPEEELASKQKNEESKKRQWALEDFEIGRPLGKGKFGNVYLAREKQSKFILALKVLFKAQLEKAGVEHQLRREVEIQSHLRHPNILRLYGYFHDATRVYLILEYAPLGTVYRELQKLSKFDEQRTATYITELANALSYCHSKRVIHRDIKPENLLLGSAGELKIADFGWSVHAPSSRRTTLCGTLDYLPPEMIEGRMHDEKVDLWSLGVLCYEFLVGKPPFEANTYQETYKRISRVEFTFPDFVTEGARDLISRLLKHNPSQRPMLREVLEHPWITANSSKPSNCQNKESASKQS

[2] = target: Ribosomal protein S6 kinase (Homo sapiens) (UniProt P51812+Q9UBS0+O75676+Q15349+O75582+P23443+Q9UK32+Q15418); test: Inhibition of p70S6K (unknown origin) at 1 uM after 40 mins by scintillation counting method relative to control; format: protein assay
[3] = target: Serine/threonine-protein kinase B-raf (Homo sapiens) (UniProt P15056); test: Inhibition of BRAF (unknown origin) at 1 uM after 40 mins by scintillation counting method relative to control
Serine/threonine-protein kinase B-raf (Homo sapiens), sequence (P15056 whole entry): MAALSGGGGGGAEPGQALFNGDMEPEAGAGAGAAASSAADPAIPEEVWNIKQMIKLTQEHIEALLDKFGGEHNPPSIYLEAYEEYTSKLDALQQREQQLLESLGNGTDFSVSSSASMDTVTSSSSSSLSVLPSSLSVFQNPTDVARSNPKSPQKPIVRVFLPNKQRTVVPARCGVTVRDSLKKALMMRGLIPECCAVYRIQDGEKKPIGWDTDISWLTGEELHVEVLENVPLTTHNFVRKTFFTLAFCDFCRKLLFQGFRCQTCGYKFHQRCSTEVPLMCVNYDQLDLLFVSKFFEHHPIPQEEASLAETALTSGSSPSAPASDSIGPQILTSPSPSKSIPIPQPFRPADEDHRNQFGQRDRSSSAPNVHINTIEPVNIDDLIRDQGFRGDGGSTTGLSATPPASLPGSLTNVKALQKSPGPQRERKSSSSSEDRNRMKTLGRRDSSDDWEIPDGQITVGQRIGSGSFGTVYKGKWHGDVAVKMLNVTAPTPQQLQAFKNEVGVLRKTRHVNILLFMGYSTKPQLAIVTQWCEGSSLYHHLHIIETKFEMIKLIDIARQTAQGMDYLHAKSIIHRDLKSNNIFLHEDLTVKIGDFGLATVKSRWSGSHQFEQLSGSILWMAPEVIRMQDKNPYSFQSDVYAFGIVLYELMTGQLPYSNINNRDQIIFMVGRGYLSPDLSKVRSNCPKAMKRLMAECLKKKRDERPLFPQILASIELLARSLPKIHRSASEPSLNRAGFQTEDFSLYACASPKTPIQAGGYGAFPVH

[4] = target: Rho-associated protein kinase 1 (Homo sapiens) (UniProt Q13464); test: Inhibition of ROCK1 (unknown origin) at 1 uM after 40 mins by scintillation counting method relative to control
Rho-associated protein kinase 1 (Homo sapiens), sequence (Q13464 2-1354 limits assumed): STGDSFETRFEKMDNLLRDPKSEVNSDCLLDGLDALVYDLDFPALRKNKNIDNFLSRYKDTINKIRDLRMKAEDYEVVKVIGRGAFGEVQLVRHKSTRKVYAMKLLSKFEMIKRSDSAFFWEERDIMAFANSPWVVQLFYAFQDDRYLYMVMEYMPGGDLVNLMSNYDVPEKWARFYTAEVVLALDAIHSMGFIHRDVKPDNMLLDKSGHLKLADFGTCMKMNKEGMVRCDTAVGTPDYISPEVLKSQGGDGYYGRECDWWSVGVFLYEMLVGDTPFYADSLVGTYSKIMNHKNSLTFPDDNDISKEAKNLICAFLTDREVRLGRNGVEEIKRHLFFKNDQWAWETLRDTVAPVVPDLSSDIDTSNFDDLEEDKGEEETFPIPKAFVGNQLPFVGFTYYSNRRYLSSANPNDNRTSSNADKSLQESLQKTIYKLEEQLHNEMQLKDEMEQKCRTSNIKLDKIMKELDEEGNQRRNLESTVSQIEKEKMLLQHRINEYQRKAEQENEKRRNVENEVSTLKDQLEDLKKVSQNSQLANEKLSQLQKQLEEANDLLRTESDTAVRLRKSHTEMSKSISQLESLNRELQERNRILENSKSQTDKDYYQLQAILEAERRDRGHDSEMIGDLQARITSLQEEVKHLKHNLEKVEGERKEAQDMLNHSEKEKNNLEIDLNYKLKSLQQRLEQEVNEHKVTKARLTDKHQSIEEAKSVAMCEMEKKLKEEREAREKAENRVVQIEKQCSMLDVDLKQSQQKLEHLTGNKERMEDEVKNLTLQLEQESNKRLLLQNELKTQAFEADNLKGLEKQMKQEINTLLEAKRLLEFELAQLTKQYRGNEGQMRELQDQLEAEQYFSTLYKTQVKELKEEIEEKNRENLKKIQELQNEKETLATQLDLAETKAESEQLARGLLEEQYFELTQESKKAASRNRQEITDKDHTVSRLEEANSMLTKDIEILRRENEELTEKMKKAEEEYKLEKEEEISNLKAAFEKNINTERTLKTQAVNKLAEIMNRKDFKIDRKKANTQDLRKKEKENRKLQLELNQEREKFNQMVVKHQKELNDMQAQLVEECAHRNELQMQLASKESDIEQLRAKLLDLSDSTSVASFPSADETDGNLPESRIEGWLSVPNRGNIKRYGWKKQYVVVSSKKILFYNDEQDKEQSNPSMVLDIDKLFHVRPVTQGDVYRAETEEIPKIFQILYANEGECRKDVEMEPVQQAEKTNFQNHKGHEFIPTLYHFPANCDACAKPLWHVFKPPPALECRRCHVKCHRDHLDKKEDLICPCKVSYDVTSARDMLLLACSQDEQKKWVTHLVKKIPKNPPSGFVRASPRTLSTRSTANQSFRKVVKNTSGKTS

[5] = target: T2, Serine/threonine-protein kinase Chk1 (Homo sapiens) (UniProt O14757); test: Inhibition of CHK1 (unknown origin) at 1 uM after 40 mins by scintillation counting method relative to control
T2 sequence (whole entry): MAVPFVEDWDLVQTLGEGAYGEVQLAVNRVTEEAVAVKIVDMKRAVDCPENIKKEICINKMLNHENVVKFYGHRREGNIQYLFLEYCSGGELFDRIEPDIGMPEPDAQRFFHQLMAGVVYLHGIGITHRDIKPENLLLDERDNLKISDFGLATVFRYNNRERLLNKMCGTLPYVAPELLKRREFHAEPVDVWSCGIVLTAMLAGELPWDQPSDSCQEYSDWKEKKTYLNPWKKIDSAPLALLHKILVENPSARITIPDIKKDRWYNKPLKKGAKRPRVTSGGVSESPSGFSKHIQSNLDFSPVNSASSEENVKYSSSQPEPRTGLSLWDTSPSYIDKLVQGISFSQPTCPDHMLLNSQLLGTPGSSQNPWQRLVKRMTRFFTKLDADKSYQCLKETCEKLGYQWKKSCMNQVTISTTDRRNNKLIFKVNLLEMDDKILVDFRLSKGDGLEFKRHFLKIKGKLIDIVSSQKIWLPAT

[6] = species: Homo sapiens; test: Selectivity ratio of compound effect for inhibition of AKT1 (unknown origin) to compound effect for inhibition of AKT2 (unknown origin)
[7] = species: Homo sapiens; test: Selectivity ratio of compound effect for inhibition of AKT3 (unknown origin) to compound effect for inhibition of AKT2 (unknown origin)
[8] = target: RAC-alpha serine/threonine-protein kinase (Homo sapiens, UniProt P31749); test: Inhibition of AKT phosphorylation in human PC3 cells at 1 to 10 uM after 4 hrs by Western blot analysis; format: cell-based
RAC-alpha serine/threonine-protein kinase, sequence (P31749 whole entry): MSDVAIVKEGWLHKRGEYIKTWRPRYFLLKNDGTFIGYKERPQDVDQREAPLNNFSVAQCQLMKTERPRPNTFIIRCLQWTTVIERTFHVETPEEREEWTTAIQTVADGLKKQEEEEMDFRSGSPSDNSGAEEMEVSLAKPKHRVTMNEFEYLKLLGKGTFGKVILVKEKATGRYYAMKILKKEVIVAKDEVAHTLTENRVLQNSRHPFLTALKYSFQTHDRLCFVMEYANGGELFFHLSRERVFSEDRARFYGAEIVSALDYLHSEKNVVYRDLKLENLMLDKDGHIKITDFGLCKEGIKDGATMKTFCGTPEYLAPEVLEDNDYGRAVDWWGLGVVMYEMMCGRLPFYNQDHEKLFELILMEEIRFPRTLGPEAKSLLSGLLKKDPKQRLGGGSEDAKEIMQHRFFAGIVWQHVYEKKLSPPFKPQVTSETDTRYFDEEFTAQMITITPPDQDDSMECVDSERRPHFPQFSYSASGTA

[9] = system: PC-3; test: Induction of apoptosis in human PC3 cells assessed as live cells at 1 uM after 48 hrs by Annexin V-FITC/propidium iodide staining based flow cytometry (reference value: 97.19%); format: functional
[10] = system: PC-3; test: Induction of apoptosis in human PC3 cells assessed as early apoptotic cells at 5 uM after 48 hrs by Annexin V-FITC/propidium iodide staining based flow cytometry (reference value: 1.05%); format: functional
[11] = system: PC-3; test: Induction of apoptosis in human PC3 cells assessed as late apoptotic cells at 5 uM after 48 hrs by Annexin V-FITC/propidium iodide staining based flow cytometry (reference value: 0.27%); format: functional
[12] = in vitro; set-up: dose or concentration left out as unconfirmed; details: human, liver microsomes
Description: Intrinsic clearance in human liver microsomes at 10 mM preincubated for 10 mins followed by NADPH addition and measured after 5 to 60 mins by LC-MS analysis

[13] = in vitro; set-up: dose or concentration left out as unconfirmed; details: human, liver microsomes; remark: listed apart in the source
Description: Stability in human liver microsomes assessed as parent compound remaining at 10 mM preincubated for 10 mins followed by NADPH addition and measured after 60 mins by LC-MS analysis

Q: Which inhibition [1] does the source give for `O=C(N1CCN(c2ncnc3[nH]nc(Cl)c23)CC1)C1(c2ccc(Cl)c(Cl)c2)CCNCC1` here?
A: Its inhibition is 64%.

Q: What about the inhibition [2] of the same compound?
A: Its inhibition is 99%.

Q: What about the inhibition [3] of the same compound?
A: Its inhibition is “inactive”.

Q: What about the inhibition [4] of the same compound?
A: Its inhibition is “inactive”.

Q: And the inhibition [5]?
A: The inhibition was “inactive”.

Q: And the Selectivity ratio [6]?
A: The Selectivity ratio was > 2.

Q: And the Selectivity ratio [7]?
A: The Selectivity ratio was > 2.

Q: And the inhibition [8]?
A: The inhibition was “Active”.

Q: And the Activity [9]?
A: The Activity was 90.48%.

Q: What about the Activity [10] of the same compound?
A: The Activity was 3.93%.

Q: And the Activity [11]?
A: The Activity was 6.2%.

Q: And the CLint scaled [12]?
A: Its CLint scaled is < 8.6 mL/min/kg.

Q: And the microsomal CLint [12]?
A: The microsomal CLint was < 9.6 µL/min/mg.

Q: What about the remaining at 1 h [13] of the same compound?
A: Its remaining at 1 h is 81.8%.
